# ChEMBL document CHEMBL5625227, “Discovery and optimization of 2,3-diaryl-1,3-thiazolidin-4-one-based derivatives as potent and selective cytotoxic agents with anti-inflammatory activity” (Eur J Med Chem, 2023)
# The source made the active and inactive calls. No cut-off for these calls is given here.
# Legend:
# MCF7 = test: Cytotoxicity against human MCF7 cells assessed as inhibition in cell growth incubated for 72 hrs by MTT assay; assay type: functional, cell-based; details: MCF7, 72 h
# HT-29 [1] = test: Cytotoxicity against human HT-29 cells assessed as inhibition in cell growth incubated for 72 hrs by MTT assay; assay type: functional, cell-based; details: HT-29, 72 h
# A2780 = test: Cytotoxicity against human A2780 cells assessed as inhibition in cell growth incubated for 72 hrs by MTT assay; assay type: functional, cell-based; details: A2780, 72 h
# [2] = Cytotoxicity against human MRC5 cells assessed as inhibition in cell growth incubated for 72 hrs by MTT assay; assay type: toxicity, cell-based
# [3] = Selectivity index, ratio of IC50 for cytotoxicity against human MRC5 cells to IC50 for cytotoxicity against human MCF7 cells; details: MRC5 cells versus MCF7 cells
# [4] = Selectivity index, ratio of IC50 for cytotoxicity against human MRC5 cells to IC50 for cytotoxicity against human HT-29 cells; details: MRC5 cells versus HT-29 cells
# [5] = Selectivity index, ratio of IC50 for cytotoxicity against human MRC5 cells to IC50 for cytotoxicity against human A2780 cells; details: MRC5 cells versus A2780 cells
# HT-29 [6] = test: Anticlonogenic activity against human HT-29 cells assessed as reduction in number of colonies at 0.025 uM incubated for 24 hrs by clonogenic survival assay; assay type: functional, cell-based
# Ehrlich [7] = test: Antitumor activity against mouse Ehrlich solid carcinoma cells bearing adult male swiss albino mouse assessed as decrease in tumor volume at 50 mg/kg, po administered every other day and observed at 9 days; assay type: functional, organism-based; details: time 9.0 day
# Ehrlich [8] = test: Antitumor activity against mouse Ehrlich solid carcinoma cells bearing adult male swiss albino mouse assessed as decrease in tumor volume at 50 mg/kg, po administered every other day and observed at 13 days; assay type: functional, organism-based; details: time 13.0 day
# Ehrlich [9] = test: Antitumor activity against mouse Ehrlich solid carcinoma cells bearing adult male swiss albino mouse assessed as decrease in tumor volume at 50 mg/kg, po administered every other day and observed at 5 days; assay type: functional, organism-based; details: time 5.0 day
# Ehrlich [10] = test: Antitumor activity against mouse Ehrlich solid carcinoma cells bearing adult male swiss albino mouse assessed as tumor growth inhibition at 50 mg/kg, po administered every other day and observed at 13 days relative to control; assay type: functional; details: 312 h, time 13 day, read-out: TGI
# Ehrlich [11] = test: Antitumor activity against mouse Ehrlich solid carcinoma cells bearing adult male swiss albino mouse assessed as decrease in tumor weight at 50 mg/kg, po administered every other day and observed at 14 days; assay type: functional, organism-based; details: time 14.0 day
# HT-29 [12] = test: Anti-migration activity in human HT-29 cells assessed as suppression in cell migration at 0.025 uM incubated 48 hrs by wound-healing assay; assay type: functional, cell-based
# HT-29 [13] = test: Induction of apoptosis in human HT-29 cells assessed as accumulation of cells at viable stage at 0.025 uM incubated for 24 hrs by Annexin V-FITC/propidium iodide staining based flow cytometry analysis (reference value: 91.7%); assay type: functional
# HT-29 [14] = test: Induction of apoptosis in human HT-29 cells assessed as accumulation of cells at early apoptotic stage at 0.025 uM incubated for 24 hrs by Annexin V-FITC/propidium iodide staining based flow cytometry analysis (reference value: 0.1%); assay type: functional
# HT-29 [15] = test: Induction of apoptosis in human HT-29 cells assessed as accumulation of cells at late apoptotic stage at 0.025 uM incubated for 24 hrs by Annexin V-FITC/propidium iodide staining based flow cytometry analysis (reference value: 0.2%); assay type: functional
# HT-29 [16] = test: Induction of apoptosis in human HT-29 cells assessed as accumulation of cells at necrotic stage at 0.025 uM incubated for 24 hrs by Annexin V-FITC/propidium iodide staining based flow cytometry analysis (reference value: 8.1%); assay type: functional
# Sus scrofa = organism: Sus scrofa; test: Inhibition of porcine brain tubulin polymerization at 1 uM by fluorescence-based tubulin polymerization assay
# [17] = target: T1, Prostaglandin G/H synthase 1 (Ovis aries, UniProt P05979); test: Inhibition of ovine COX-1
# T1 sequence (P05979 whole entry): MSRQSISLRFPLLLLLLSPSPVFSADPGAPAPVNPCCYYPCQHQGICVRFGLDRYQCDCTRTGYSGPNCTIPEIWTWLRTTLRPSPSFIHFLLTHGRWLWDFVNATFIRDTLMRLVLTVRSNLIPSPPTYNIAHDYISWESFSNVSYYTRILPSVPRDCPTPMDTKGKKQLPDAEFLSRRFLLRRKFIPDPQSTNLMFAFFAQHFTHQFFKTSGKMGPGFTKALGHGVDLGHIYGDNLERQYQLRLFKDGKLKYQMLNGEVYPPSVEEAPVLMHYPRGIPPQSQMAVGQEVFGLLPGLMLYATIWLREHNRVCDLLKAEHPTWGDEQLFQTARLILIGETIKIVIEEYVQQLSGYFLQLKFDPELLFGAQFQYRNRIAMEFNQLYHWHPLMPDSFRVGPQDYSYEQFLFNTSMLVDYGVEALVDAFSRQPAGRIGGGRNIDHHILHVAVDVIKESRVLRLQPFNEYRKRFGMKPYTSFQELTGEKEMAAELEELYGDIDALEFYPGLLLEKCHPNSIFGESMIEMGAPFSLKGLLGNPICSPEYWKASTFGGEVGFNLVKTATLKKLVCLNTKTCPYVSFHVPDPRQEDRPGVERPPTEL
# Rattus norvegicus [18] = test: Antiinflammatory activity against carrageenan-induced paw edema Sprague-Dawley rat model assessed as inhibition of paw edema by measuring edema thickness at 50 mg/kg, po measured after 1 hr (reference value: 0.71 +/- 0.03 mm); assay type: functional
# Rattus norvegicus [19] = test: Antiinflammatory activity against carrageenan-induced paw edema Sprague-Dawley rat model assessed as inhibition of paw edema by measuring edema thickness at 50 mg/kg, po measured after 3 hrs (reference value: 1.41 +/- 0.13 mm); assay type: functional
# Rattus norvegicus [20] = test: Antiinflammatory activity against carrageenan-induced paw edema Sprague-Dawley rat model assessed as inhibition of paw edema by measuring edema thickness at 50 mg/kg, po measured after 5 hrs (reference value: 1.39 +/- 0.11 mm); assay type: functional
# Rattus norvegicus [21] = test: Antiinflammatory activity against carrageenan-induced paw edema Sprague-Dawley rat model assessed as inhibition of inflammation at 50 mg/kg, po after 1 hr relative to control; assay type: functional; design: scale not given: the % may be the effect or the level left
# Rattus norvegicus [22] = test: Antiinflammatory activity against carrageenan-induced paw edema Sprague-Dawley rat model assessed as inhibition of inflammation at 50 mg/kg, po after 3 hrs relative to control; assay type: functional; design: scale not given: the % may be the effect or the level left
# Rattus norvegicus [23] = test: Antiinflammatory activity against carrageenan-induced paw edema Sprague-Dawley rat model assessed as inhibition of inflammation at 50 mg/kg, po after 5 hrs relative to control; assay type: functional; design: scale not given: the % may be the effect or the level left
# [24] = Acute ulcerogenic activity in Sprague-Dawley male rat assessed as incidence of ulcer/10 animal at 50 mg/kg/day, po administered for 3 days; assay type: toxicity, organism-based; details: in vivo, 72 h, time 3 day
# [25] = Acute ulcerogenic activity in Sprague-Dawley male rat assessed as average number of ulcers at 50 mg/kg/day, po administered for 3 days; assay type: toxicity, organism-based; details: in vivo, 72 h, time 3 day
# [26] = Acute ulcerogenic activity in Sprague-Dawley male rat assessed as average severity of ulcers at 50 mg/kg/day, po administered for 3 days; assay type: toxicity, organism-based; details: in vivo, 72 h, time 3 day
# [27] = Acute ulcerogenic activity in Sprague-Dawley male rat assessed as ulcer index at 50 mg/kg/day, po administered for 3 days; assay type: toxicity, organism-based; details: in vivo, 72 h, time 3 day
# [28] = Acute ulcerogenic activity in Sprague-Dawley male rat assessed as change in normal gastric mucosa with mild congestion of the blood vessels in the submucosa at 50 mg/kg/day, po administered for 3 days by hematoxylin and eosin staining method; assay type: toxicity, organism-based, Stomach; details: in vivo, 72 h, time 3 day
compound,measurement,setting,value
Cc1ccc(C2SCC(=O)N2c2ccc(OCC(=O)Nc3ccc(Cl)cc3)cc2)cc1 (stereo unspecified),IC50,MCF7,110 nM
same,IC50,HT-29 [1],20 nM
same,IC50,A2780,180 nM
same,IC50 at 72 h,[2],470 nM
same,selectivity ratio at 72 h,[3],4.27
same,selectivity ratio at 72 h,[4],23.5
same,selectivity ratio at 72 h,[5],2.61
same,Activity,HT-29 [6],Active
same,Activity,Ehrlich [7],Active
same,Activity,Ehrlich [8],Active
same,Activity,Ehrlich [9],Active
same,inhibition in vivo at 50 mg/kg,Ehrlich [10],51.6%
same,Activity,Ehrlich [11],Active
same,Activity,HT-29 [12],Active
same,Activity,HT-29 [13],41.1%
same,Activity,HT-29 [14],19.2%
same,Activity,HT-29 [15],15.6%
same,Activity,HT-29 [16],24.1%
same,inhibition,Sus scrofa,Active
same,IC50,[17],13.4 µM
same,Activity,Rattus norvegicus [18],0.52 mm
same,Activity,Rattus norvegicus [19],0.49 mm
same,Activity,Rattus norvegicus [20],0.73 mm
same,Activity,Rattus norvegicus [21],15.3%
same,Activity,Rattus norvegicus [22],32.7%
same,Activity,Rattus norvegicus [23],47.48%
same,Activity,[24],10%
same,Activity,[25],3.33
same,Activity,[26],2
same,UI,[27],15.33
same,Activity,[28],Non-Toxic
